Test results taken from US10253085B2, “CD31 peptides for the treatment of thrombotic or autoimmune disorders” (INSERM (INSTITUT NATIONAL DE LA SANTE ET DE LA RECHERCHE …, priority 2008, dated 2019).
Residues, ends and D or L forms follow the SMILES beside them.

Legend:
[1] = system: spleen cells from C57Bl/6 (CD31^+/+) mice; assay: Proliferation in response to TCR stimulation, CD31+/+ spleen cells; type: cell-based, mouse; details: peptide 25, 50, 100 μM, scramble peptide 100 μM
Procedure: (§1) CD8^+ T cell-mediated cytolytic activity against allogeneic mouse aortic smooth muscle cells and measurement of macrophage gelatinase (MMP-2/9) activity were performed as previously described for human cells in Caligiuri et al. (2006 Arterioscler Thromb Vasc Biol 26:618-623) using kits and reagents from Invitrogen. Briefly, primary cultures of FVB/N mouse aorta smooth muscle cells were labelled with the lipophylic tracer DIO (green) and co-cultured for 3 hours with CD8+ T cell-enriched spleen cells from C57Bl/6 mice (n=3 scramble peptide and n=3 peptide 551-574, 50 μM). Cytolysis was evaluated by intracellular accumulation of propidium iodide (PI). Cells were analysed by flow cytometry and the % of cytolysis was calculated by expressing the number of dead (PI+) cells among the target (DIO+) cells. Intracellular MMP-2/9 (gelatinase) activity was measured by flow cytometry in 7-day bone-marrow derived macrophages from C57Bl/6 mice (n=3 scramble peptide and n=3 peptide 551-574, 50 μM) three hours after the incorporation of OregonGreen® gelatine (MFI). T-cell proliferation was performed using either human peripheral blood mononuclear cells of spleen cells from C57Bl/6 (CD31^+/+) and CD31^−/− mice (Charles River France) as previously described (Caligiuri et al. 2005 Arterioscler Thromb Vasc Biol 25:1659-1664). Briefly, cells were plated in triplicates at 0.2×10^6 cells/well in a U bottom 96-well plate in complete medium (RPMI 1640, 1% pyruvate, 1% glutamine, 1% penicillin-streptomicyne-fungizone, 10% decomplemented fetal calf serum, all from Invitrogen) containing 1 μg/ml anti-mouse CD3/CD28 or 5 μg/ml anti-human CD3 antibodies (BD) as appropriate. CD31 (551-574) and scramble peptide at 25, 50 and 100 μM final concentration were deposited in the wells just before cell plating. Plated cells were cultured for 72 hours in 5% CO2 at 37° C. (^3H) thymidine (0.5 μCi/well) was added for the last 16 hours and proliferation evaluated using a Tomtec harvester and analysis on a Wallac micro beta counter. Data are expressed as mean±SEM of cpm in triplicates.

[2] = system: spleen cells from CD31^−/− mice; assay: Proliferation in response to TCR stimulation, CD31-/- spleen cells; type: cell-based, mouse
Procedure: as §1

[3] = system: CD4+ cells from C57Bl6 mice; assay: CD4+ T cell activation, early activation marker CD69 by flow cytometry; type: cell-based, mouse; details: 18 hours culture
Procedure: Alternatively, the T-cell proliferation assay may comprise comparing expression levels of the early activation marker CD69 in T-cells cultured either in the presence or in the absence of the compound to be tested. This assay may for example be performed as follows: • providing purified CD4+ cells (e.g. purified from C57B16 mice); • stimulating said CD4+ cells by addition of anti-CD3 purified antibodies and bone marrow derived dendritic cells; • culturing the cells for about 18 hours; and • analyzing said cells for the expression of the early activation marker CD69, e.g. by flow cytometry; and • comparing CD69 expression in the presence of the compound to be tested.
The immunosuppressive properties of PepReg (10aa) vs the 23 aa parent peptide were evaluated in vitro. Negatively purified CD4+ cells from C57Bl6 mice were stimulated by soluble anti-CD3 purified antibodies and bone marrow derived dendritic cells. Cells from triplicate wells were analyzed for the expression of the early activation marker CD69 after 18 hours culture in complete RPMI medium supplemented with 10% fetal calf serum.

[4] = system: C57BL/6J mice immunized with MOG35-55 peptide; assay: Experimental Autoimmune Encephalomyelitis (EAE) model; type: in vivo, mouse; details: single peptide shot
Procedure: Twelve-week old female C57BL/6J mice were immunized with 300 μg of MOG35-55 peptide emulsified in Complete Freund's Adjuvant 1:1 by volume containing 800 μg of nonviable desiccated Mycobacterium tuberculosis H37RA. A final volume of 200 μl of the emulsion was injected subcutaneously at 4 sites (50 μl/site) over the flanks. In addition, 300 ng of Pertussis toxin was injected intravenously (retro-orbital plexus) on the same day and 2 days later. Clinical signs of EAE ware assessed daily by the following scoring system: 0, no signs; 1, hindlimb weakness; 2, hindlimb weakness and tail paralysis; 3, hindlimb and tail paralysis; 4, hindlimb and tail paralysis and forelimb weakness; 5, moribund state; and 6, death. The peak (waxing phase) occured around day 21. In this C57BL/6J mouse model, there was no waning phase as assessed in our laboratory up to day 41.
The experiment was carried out with ten mice per group. The mice of each group were treating with either of: • PBS; • PepReg (SEQ ID NO: 3); or • PepScra (SEQ ID NO: 14).
The dosing was of 50 μg of peptide per mice and per day (i.e. about 2 mg/Kg per day). The peptide was administered by a subcutaneous injection.

[5] = system: Spleen cells from C57Bl/6 mice; assay: Calcium mobilisation assay in Fluo-3AM-loaded spleen cells; type: cell-based, mouse; details: anti-CD3/CD28, peptide 100 μM; compared with anti-CD31 antibody cross-linking
Procedure: Spleen cells from C57Bl/6 mice were prepared as described in Caligiuri et al. (2005 Arterioscler Thromb Vasc Biol 25:1659-1664). Cells were incubated with Fluo-3AM (Invitrogen, # F1242) as per the instructions of the manufacturer. Fluorescence of calcium-bound tracer was measured in the FITC channel on an LSRII® cytometer (BD Biosciences) prior to and during 60 seconds following the addition of hamster anti-mouse CD3/CD28 monoclonal antibodies (40 μg/ml each) and rat/hamster compBead® (1:50) either alone or in the presence of rat anti-mouse CD31 antibody (clone 390, 10 μg/ml) or in the presence of CD31 peptide 551-574 (100 μM). Negative controls included rat IgG isotype control and scramble peptide. Antibodies and compBeads® were from BD Biosciences.

[6] = system: allogeneic mouse aortic smooth muscle cells; assay: CD8+ T cell-mediated cytolytic activity against allogeneic smooth muscle cells; type: cell-based; details: peptide 50 μM, 3 hours co-culture
Procedure: CD8^+ T cell-mediated cytolytic activity against allogeneic mouse aortic smooth muscle cells and measurement of macrophage gelatinase (MMP-2/9) activity were performed as previously described for human cells in Caligiuri et al. (2006 Arterioscler Thromb Vasc Biol 26:618-623) using kits and reagents from Invitrogen. Briefly, primary cultures of FVB/N mouse aorta smooth muscle cells were labelled with the lipophylic tracer DIO (green) and co-cultured for 3 hours with CD8+ T cell-enriched spleen cells from C57Bl/6 mice (n=3 scramble peptide and n=3 peptide 551-574, 50 μM). Cytolysis was evaluated by intracellular accumulation of propidium iodide (PI). Cells were analysed by flow cytometry and the % of cytolysis was calculated by expressing the number of dead (PI+) cells among the target (DIO+) cells. Intracellular MMP-2/9 (gelatinase) activity was measured by flow cytometry in 7-day bone-marrow derived macrophages from C57Bl/6 mice (n=3 scramble peptide and n=3 peptide 551-574, 50 μM) three hours after the incorporation of OregonGreen® gelatine (MFI). […] (^3H) thymidine (0.5 μCi/well) was added for the last 16 hours and proliferation evaluated using a Tomtec harvester and analysis on a Wallac micro beta counter. Data are expressed as mean±SEM of cpm in triplicates.

[7] = target: T1, peptide 551-574 coated on CM5 chips (Mus musculus, UniProt Q08481); assay: Surface plasmon resonance (BIAcore) homophilic binding of peptide 551-574; details: homophilic interaction
T1 construct: made in house; host or cells: chemical synthesis (no expression host)
Procedure: Homophilic binding association and dissociation constants were calculated by surface plasmon resonance (BIAcore® 2000, GE). In brief, peptide 551-574 was coated at 3400 resonance units (RU) on CM5 chips according to the manufacturer's instructions. Soluble peptide 551-574 (12.5, 25, 50 and 100 μM in 200 μl of 10 mM HEPES pH 7.4, 150 mM NaCl, 0.005% Tween 20) was injected at 20 μl/min at 25° C., on the peptide-coated channel and on an uncoated channel. Dissociation was monitored for 300 seconds. Association (kon) and dissociation (koff) constants were calculated using the BlAevaluation® 3.0 Software (GE).

For `CSCC[C@H](NC(=O)[C@H](CO)NC(=O)[C@@H](N)CO)C(=O)N[C@@H](CCCNC(=N)N)C(=O)N[C@H](C(=O)N[C@@H](CO)C(=O)N1CCC[C@H]1C(=O)N[C@@H](CCCNC(=N)N)C(=O)N[C@@H](CO)C(=O)N[C@@H](CO)C(=O)N[C@H](C(=O)N[C@@H](CC(C)C)C(=O)N[C@@H](C)C(=O)N[C@H](C(=O)N[C@@H](CCCNC(=N)N)C(=O)N[C@H](C(=O)N[C@@H](Cc1ccccc1)C(=O)N[C@@H](CC(C)C)C(=O)N[C@@H](C)C(=O)N1CCC[C@H]1C(=O)N[C@@H](Cc1c[nH]c2ccccc12)C(=O)N[C@@H](CCCCN)C(=O)N[C@@H](CCCCN)C(=O)O)C(C)C)C(C)C)[C@@H](C)O)[C@@H](C)O` [peptide 551-574] (H-SSMRTSPRSSTLAVRVFLAPWKK-OH), the “proliferation of CD31+/+ spleen cells in response to TCR stimulation” value [1] was “inhibits in a dose-dependent manner”, the “proliferation of CD31+/+ spleen cells in response to TCR stimulation” value ([1]; listed as mouse CD31 peptide 551-574) was “dose-dependent inhibition” and the “proliferation of CD31-/- spleen cells” value ([2]; highest dose, 100 μM) was “effect at 100 μM dose also on cells lacking CD31”. The “proliferation of CD31-/- spleen cells” value ([2]; highest dose, 100 μM, listed as mouse CD31 peptide 551-574) was “only the highest dose of the peptide affect proliferation”, the “proliferation of CD31-/- spleen cells” value ([2]; low dose of the peptide) was “no effect” and the “dose at which suppression of CD69 expression was observed” value [3] was 100 µg/mL. The “duration of protective effect in EAE” value [4] was “up to 5 days”, the “inhibition of TCR-induced calcium mobilization” value [5] was “as an efficient immunoregulatory strategy as it is the co-ligation of CD3 and CD28 with the distal portion of CD31” and the “CD8+ T cell-dependent cytolysis of murine aortic smooth muscle cells” value [6] was “inhibited”. For the same molecule, the kon ([7]; 25° C., analyte 12.5-100 μM, read-out: association constant (kon)) was 134 ± 120 M⁻¹ s⁻¹, the koff ([7]; 25° C., read-out: dissociation constant (koff)) was 0.00158 s⁻¹ and the Kd ([7]; read-out: affinity at equilibrium) was 17.8 ± 9.7 µM.
